Key:
Assay type in all cases: biochemical
Lck = biological target: T1, Lck (Homo sapiens, UniProt P06239); assay: Kinase inhibition assay (33P transfer), Lck; conditions: read-out: Lck-1
T1 construct: Kinases are expressed as either kinase domains or full length constructs; made in house
Method in brief: (§1)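 33P-ATP transfer to coated synthetic polymer substrates; acid wash (0.5% H3PO4), scintillant, liquid scintillation count. Enzymes: His- or GST-fusion kinases from E. coli or High Five insect cells.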

Zap-70 = biological target: T2, Zap-70 (Homo sapiens, UniProt P43403); assay: Kinase inhibition assay (33P transfer), Zap-70; conditions: read-out: Zap-1
T2 construct: Kinases are expressed as either kinase domains or full length constructs; made in house
T2 sequence (P43403 1-619): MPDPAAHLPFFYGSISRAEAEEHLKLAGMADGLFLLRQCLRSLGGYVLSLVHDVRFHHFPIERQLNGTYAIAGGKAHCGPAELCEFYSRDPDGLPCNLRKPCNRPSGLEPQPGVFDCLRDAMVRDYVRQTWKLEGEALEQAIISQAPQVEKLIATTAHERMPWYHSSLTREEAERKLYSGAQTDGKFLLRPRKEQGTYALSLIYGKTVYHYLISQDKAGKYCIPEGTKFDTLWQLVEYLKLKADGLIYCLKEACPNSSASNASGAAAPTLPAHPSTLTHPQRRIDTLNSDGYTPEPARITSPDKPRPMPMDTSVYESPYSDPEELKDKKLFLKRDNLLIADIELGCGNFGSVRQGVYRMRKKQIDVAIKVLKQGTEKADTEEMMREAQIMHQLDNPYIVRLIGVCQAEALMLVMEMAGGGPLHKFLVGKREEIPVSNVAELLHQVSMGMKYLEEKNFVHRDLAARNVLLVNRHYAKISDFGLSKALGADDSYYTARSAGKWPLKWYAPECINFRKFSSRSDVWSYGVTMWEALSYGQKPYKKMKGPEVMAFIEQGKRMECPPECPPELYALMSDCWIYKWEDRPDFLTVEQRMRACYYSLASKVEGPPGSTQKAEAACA
Method in brief: as §1

Itk = biological target: T3, Itk (Homo sapiens, UniProt Q08881); assay: Kinase inhibition assay (33P transfer), Itk; conditions: read-out: Itk-1
T3 construct: Kinases are expressed as either kinase domains or full length constructs; made in house
T3 sequence (Q08881 1-620): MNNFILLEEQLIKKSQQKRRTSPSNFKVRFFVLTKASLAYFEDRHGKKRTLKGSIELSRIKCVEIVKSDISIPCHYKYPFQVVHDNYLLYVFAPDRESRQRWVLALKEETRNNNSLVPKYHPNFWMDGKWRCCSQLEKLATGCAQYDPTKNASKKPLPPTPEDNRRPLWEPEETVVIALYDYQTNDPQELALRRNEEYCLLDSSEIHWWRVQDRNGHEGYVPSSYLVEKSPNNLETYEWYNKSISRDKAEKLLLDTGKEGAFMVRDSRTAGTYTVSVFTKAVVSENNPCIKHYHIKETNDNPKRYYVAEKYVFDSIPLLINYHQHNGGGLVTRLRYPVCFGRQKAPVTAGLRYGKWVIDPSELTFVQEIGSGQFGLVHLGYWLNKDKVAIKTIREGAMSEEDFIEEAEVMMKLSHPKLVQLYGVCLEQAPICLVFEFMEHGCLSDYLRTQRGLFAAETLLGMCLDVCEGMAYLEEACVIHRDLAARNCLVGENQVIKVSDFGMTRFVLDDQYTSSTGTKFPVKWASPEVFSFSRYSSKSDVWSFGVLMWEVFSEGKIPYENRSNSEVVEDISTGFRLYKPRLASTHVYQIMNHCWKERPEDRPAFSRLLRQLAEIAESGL
Method in brief: (§2)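 Kinase domains or full-length enzymes, GST- or polyHis-tagged, were expressed in E. coli or baculovirus High Five cells and affinity-purified. Transfer of 33PO4 from ATP onto plate-bound poly(Glu,Tyr) 4:1 or poly(Arg,Ser) 3:1 was counted by liquid scintillation after a 0.5% phosphoric acid wash. IC50 = concentration halving incorporation.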

EGFR = biological target: T4, EGFR (Homo sapiens, UniProt P00533); assay: Kinase inhibition assay (33P transfer), EGFR; conditions: Table 2, kinase inhibition class; read-out: EGFR-1
T4 construct: Kinases are expressed as either kinase domains or full length constructs; made in house
Method in brief: as §2

ErbB2 = biological target: T5, ErbB2 (Homo sapiens, UniProt P04626); assay: Kinase inhibition assay (33P transfer), ErbB2; conditions: read-out: ErbB2-2
T5 construct: Kinases are expressed as either kinase domains or full length constructs; made in house
Method in brief: as §2

Kdr = biological target: T6, Kdr (Homo sapiens, UniProt P35968); assay: Kinase inhibition assay (33P transfer), Kdr; conditions: read-out: KDR-1
T6 construct: Kinases are expressed as either kinase domains or full length constructs; made in house
Method in brief: as §1

c-Met = biological target: T7, c-Met (Homo sapiens, UniProt P08581); assay: Kinase inhibition assay (33P transfer), c-Met; conditions: Table 2, kinase inhibition class; read-out: Met-1
T7 construct: Kinases are expressed as either kinase domains or full length constructs; made in house
Method in brief: as §2

AKT = biological target: T8, AKT (Homo sapiens, UniProt Q9Y243); assay: Kinase inhibition assay (33P transfer), AKT; conditions: Table 2, kinase inhibition class; read-out: AKT3-1
T8 construct: Kinases are expressed as either kinase domains or full length constructs; made in house
Method in brief: as §1

IGFR-1 = biological target: T9, IGFR-1 (Homo sapiens, UniProt P08069); assay: Kinase inhibition assay, IGFR-1 (Table 2); conditions: Table 2, kinase inhibition class
T9 construct: Kinases are expressed as either kinase domains or full length constructs; made in house

PDGFRB = biological target: T10, PDGFRB (Homo sapiens, UniProt P09619); assay: Kinase inhibition assay (33P transfer), PDGFRB; conditions: read-out: PDGFRB-1
T10 construct: Kinases are expressed as either kinase domains or full length constructs; made in house

T6 sequence (P35968 20-1356, species assumed): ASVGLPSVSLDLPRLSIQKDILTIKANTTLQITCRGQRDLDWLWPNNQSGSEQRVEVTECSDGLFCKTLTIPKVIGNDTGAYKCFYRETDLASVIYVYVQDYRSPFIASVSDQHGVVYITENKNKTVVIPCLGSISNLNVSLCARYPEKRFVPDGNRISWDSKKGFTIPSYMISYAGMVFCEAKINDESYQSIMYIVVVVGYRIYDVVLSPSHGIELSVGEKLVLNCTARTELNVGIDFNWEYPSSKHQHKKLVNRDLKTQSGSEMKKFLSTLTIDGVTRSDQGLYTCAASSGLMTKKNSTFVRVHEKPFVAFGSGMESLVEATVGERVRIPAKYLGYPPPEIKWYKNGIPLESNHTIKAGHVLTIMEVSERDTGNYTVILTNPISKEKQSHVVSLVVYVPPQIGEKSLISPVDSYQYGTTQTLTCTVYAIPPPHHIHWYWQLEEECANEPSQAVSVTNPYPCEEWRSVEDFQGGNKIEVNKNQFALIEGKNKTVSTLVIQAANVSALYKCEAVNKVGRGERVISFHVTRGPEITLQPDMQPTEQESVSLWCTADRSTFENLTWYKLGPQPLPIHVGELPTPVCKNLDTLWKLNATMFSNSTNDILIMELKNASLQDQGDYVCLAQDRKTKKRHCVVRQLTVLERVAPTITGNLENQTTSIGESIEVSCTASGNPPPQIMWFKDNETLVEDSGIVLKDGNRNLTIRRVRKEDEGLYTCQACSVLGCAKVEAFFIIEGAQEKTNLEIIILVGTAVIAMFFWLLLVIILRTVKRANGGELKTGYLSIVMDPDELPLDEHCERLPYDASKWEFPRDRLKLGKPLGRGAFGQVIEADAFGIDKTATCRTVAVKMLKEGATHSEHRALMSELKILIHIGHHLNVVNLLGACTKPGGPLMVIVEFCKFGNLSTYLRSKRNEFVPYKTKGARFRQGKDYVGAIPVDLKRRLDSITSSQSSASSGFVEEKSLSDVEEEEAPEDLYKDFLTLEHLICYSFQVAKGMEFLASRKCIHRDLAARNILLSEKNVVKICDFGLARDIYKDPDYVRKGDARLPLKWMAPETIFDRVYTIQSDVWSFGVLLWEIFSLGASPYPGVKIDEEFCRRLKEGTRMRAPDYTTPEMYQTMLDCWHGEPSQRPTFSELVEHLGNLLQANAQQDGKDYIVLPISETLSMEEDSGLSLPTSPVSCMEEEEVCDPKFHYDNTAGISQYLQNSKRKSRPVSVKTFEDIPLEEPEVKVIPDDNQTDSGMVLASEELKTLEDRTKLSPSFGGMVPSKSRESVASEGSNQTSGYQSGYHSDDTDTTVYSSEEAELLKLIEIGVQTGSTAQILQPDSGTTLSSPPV
T9 sequence (P08069 31-1367): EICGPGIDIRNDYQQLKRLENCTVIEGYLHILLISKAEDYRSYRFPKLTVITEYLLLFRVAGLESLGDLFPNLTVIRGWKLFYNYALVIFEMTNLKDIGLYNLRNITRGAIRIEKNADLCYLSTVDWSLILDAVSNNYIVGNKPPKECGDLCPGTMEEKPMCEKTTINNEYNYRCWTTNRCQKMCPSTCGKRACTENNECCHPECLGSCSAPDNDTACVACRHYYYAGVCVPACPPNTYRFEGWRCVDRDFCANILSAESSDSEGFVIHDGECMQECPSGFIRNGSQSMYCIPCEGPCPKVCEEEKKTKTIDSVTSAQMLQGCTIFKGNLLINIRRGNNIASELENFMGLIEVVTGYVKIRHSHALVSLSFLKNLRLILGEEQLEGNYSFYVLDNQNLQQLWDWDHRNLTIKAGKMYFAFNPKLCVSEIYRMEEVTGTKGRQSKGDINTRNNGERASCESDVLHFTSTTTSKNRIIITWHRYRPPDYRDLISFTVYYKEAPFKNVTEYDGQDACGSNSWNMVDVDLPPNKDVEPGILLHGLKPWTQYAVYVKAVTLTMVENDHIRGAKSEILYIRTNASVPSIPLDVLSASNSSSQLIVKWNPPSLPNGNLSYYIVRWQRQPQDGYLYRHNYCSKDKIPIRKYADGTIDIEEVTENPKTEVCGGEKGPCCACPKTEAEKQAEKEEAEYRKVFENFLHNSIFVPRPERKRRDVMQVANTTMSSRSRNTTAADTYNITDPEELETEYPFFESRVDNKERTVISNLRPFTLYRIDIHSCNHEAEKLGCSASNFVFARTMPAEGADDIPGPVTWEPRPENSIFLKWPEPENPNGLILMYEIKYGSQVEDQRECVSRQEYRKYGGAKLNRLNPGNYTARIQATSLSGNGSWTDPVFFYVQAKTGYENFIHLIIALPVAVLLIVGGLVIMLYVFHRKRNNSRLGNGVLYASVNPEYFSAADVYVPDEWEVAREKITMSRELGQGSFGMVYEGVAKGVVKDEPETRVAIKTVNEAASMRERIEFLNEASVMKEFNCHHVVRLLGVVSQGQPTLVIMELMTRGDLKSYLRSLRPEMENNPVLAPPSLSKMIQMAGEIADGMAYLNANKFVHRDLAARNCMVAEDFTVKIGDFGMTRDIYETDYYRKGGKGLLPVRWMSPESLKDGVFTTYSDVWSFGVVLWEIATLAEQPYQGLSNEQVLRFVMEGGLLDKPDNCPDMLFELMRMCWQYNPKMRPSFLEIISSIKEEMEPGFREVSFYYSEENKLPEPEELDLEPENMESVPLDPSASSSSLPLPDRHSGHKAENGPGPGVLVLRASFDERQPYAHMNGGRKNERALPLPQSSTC
T1 sequence (P06239 whole entry, species assumed, the tested form may be a part): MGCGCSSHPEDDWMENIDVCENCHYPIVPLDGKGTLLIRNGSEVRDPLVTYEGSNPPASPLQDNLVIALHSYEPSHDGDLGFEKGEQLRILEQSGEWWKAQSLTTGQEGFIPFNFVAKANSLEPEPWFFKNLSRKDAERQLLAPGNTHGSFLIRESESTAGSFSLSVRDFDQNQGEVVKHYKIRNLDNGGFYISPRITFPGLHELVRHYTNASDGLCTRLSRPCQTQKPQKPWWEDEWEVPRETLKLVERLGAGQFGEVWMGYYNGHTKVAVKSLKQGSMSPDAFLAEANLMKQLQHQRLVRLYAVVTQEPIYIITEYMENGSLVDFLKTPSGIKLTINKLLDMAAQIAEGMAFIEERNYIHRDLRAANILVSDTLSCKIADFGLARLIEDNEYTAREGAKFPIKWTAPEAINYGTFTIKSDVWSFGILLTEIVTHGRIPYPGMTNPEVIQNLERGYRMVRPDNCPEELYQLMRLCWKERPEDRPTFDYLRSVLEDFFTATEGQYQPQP
T4 sequence (P00533 25-1210, species assumed): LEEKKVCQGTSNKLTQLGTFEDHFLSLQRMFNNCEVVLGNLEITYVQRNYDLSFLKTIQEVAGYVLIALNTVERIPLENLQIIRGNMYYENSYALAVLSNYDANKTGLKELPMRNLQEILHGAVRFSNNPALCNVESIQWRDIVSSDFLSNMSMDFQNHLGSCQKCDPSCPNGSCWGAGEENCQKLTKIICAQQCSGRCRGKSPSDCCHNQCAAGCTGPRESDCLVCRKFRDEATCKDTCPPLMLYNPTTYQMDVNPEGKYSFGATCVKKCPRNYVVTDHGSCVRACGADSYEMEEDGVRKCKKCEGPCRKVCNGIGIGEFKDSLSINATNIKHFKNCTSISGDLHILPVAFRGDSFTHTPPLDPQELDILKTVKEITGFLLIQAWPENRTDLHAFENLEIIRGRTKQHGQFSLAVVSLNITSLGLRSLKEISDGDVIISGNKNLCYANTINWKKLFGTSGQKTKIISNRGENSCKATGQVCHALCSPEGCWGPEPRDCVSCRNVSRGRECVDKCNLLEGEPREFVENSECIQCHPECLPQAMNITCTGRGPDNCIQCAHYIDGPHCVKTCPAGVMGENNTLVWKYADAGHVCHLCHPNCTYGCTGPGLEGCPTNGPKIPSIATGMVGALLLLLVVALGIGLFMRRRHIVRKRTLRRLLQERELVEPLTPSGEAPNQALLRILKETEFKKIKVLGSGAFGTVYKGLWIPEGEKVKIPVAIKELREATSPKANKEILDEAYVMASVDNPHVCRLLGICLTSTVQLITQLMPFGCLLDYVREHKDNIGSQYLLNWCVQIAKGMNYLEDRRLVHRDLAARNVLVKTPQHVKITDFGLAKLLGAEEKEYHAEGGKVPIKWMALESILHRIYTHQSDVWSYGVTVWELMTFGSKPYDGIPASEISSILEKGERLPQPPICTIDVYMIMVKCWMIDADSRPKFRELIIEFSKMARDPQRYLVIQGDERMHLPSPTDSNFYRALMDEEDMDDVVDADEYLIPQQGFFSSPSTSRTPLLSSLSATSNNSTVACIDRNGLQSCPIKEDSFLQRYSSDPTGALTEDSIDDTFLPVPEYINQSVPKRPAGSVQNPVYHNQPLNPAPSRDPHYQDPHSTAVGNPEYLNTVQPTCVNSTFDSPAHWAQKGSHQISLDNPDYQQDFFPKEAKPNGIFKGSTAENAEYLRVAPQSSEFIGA
T8 sequence (Q9Y243 whole entry, the tested form may be a part): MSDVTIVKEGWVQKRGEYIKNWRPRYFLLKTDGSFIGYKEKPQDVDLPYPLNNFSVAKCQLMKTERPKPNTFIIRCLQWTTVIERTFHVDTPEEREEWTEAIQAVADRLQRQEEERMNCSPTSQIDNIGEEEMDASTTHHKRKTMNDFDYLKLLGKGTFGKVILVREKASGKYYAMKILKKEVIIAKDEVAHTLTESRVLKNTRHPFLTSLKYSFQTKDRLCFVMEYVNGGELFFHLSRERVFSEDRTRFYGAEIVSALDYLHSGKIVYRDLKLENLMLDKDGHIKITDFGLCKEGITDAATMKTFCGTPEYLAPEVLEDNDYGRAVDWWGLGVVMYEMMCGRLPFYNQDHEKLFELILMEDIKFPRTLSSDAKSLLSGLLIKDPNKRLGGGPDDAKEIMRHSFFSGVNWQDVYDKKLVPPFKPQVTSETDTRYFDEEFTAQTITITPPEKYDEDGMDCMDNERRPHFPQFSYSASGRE

Row | IC50 (Lck) [µM] | IC50 (Zap-70) [µM] | IC50 (Itk) [µM] | IC50 (EGFR) [µM] | IC50 (ErbB2) [µM] | IC50 (Kdr) [µM] | IC50 (c-Met) [µM] | IC50 (AKT) [µM] | IC50 (IGFR-1) [µM] | IC50 (PDGFRB) [µM] | SMILES
1 | > 12.3 | > 12.3 | > 12.3 | 6.56 to 9.57 | 6.56 to 9.57 | 6.56 to 9.57 | 1.09 to 6.56 | 1.09 to 6.56 | > 12.3 | > 12.3 | Cc1ccc2c(c1)CCCN2c1ncnc(Nc2cccc(Cl)c2C)n1 [Compound 778]
2 | > 8.53 | > 8.53 | > 8.53 | > 8.53 | > 8.53 | < 0.758 | > 8.53 | > 8.53 | > 8.53 | > 8.53 | COc1ccc([C@H](C)Nc2nc3ccccc3n2-c2ncnc(Nc3cc(OC)c(OC)c(OC)c3)n2)cc1 [Compound 1046]
3 | > 9.67 | > 9.67 | > 9.67 | > 9.67 | > 9.67 | > 9.67 | > 9.67 | > 9.67 | > 9.67 | > 9.67 | COc1cc(Nc2ncnc(Nc3cccc(CN4CCN(C)CC4)c3)n2)cc(OC)c1OC [Compound 1047]
4 | > 12.2 | > 12.2 | > 12.2 | < 1.08 | < 1.08 | < 1.08 | 1.08 to 6.49 | > 12.2 | > 12.2 | 6.49 to 9.46 | CN(c1cccc(Cl)c1)c1ncnc(Nc2cccc(CC(=O)O)c2)n1 [Compound 706]
5 | 0.782 to 4.69 | > 8.8 | > 8.8 | > 8.8 | > 8.8 | < 0.782 | 0.782 to 4.69 | > 8.8 | > 8.8 | 0.782 to 4.69 | COc1cc(Nc2ncnc(-n3c(Nc4ccccc4C(C)C)nc4ccccc43)n2)cc(OC)c1OC [Compound 1049]
6 | > 12.5 | > 12.5 | > 12.5 | > 12.5 | > 12.5 | > 12.5 | > 12.5 | > 12.5 | > 12.5 | > 12.5 | CN(c1cccc(Cl)c1)c1ncnc(Nc2cc(C(C)(C)C)on2)n1 [Compound 754]
7 | > 17.6 | > 17.6 | > 17.6 | > 17.6 | > 17.6 | > 17.6 | > 17.6 | > 17.6 | > 17.6 | > 17.6 | CN(c1cccc(Cl)c1)c1ncnc(Cl)n1 [Compound 701, N-methyl-2-chloro-4(3-chloroanilino)-1,3,5-triazine]
8 | 5.32 to 7.75 | > 9.97 | 0.886 to 5.32 | > 9.97 | > 9.97 | < 0.886 | 7.75 to 9.97 | > 9.97 | < 0.886 | 5.32 to 7.75 | Nc1nc2ccccc2n1-c1ncnc(Nc2cccc(CC(=O)NCc3ccccn3)c2)n1 [Compound 956]
9 | 7.02 to 10.2 | > 13.2 | > 13.2 | < 1.17 | 1.17 to 7.02 | > 13.2 | > 13.2 | > 13.2 | > 13.2 | 7.02 to 10.2 | COc1cccc(Nc2ncnc(N(C)c3cccc(Cl)c3)n2)c1 [Compound 741]
10 | > 14.1 | > 14.1 | > 14.1 | > 14.1 | > 14.1 | > 14.1 | > 14.1 | > 14.1 | > 14.1 | 11 to 14.1 | CCC(O)CNc1ncnc(Nc2ccc(OC)c(OC)c2)n1 (stereo not shown) [Compound 788]

The remaining lines, values behind:

Row | SMILES | IC50 (Lck) [µM] | IC50 (Zap-70) [µM] | IC50 (Itk) [µM] | IC50 (EGFR) [µM] | IC50 (ErbB2) [µM] | IC50 (Kdr) [µM] | IC50 (c-Met) [µM] | IC50 (AKT) [µM] | IC50 (IGFR-1) [µM] | IC50 (PDGFRB) [µM]
11 | COC(=O)c1ccc(-c2cc(Nc3ncnc(Nc4cccc(CC(N)=O)c4)n3)[nH]n2)cc1 [Compound 577] | 0.9 to 5.4 | > 10.1 | 0.9 to 5.4 | 7.87 to 10.1 | 7.87 to 10.1 | 0.9 to 5.4 | < 0.9 | > 10.1 | < 0.9 | 0.9 to 5.4
12 | CN(c1cccc(Cl)c1)c1ncnc(-n2c(N)nc3ccccc32)n1 [Compound 664] | 1.14 to 6.82 | 6.82 to 9.95 | 6.82 to 9.95 | 1.14 to 6.82 | 1.14 to 6.82 | 1.14 to 6.82 | 1.14 to 6.82 | 6.82 to 9.95 | 1.14 to 6.82 | 9.95 to 12.8
13 | CN1CCN(Cc2cccc(Nc3ncnc(Nc4ccc5c(cnn5Cc5ccccc5)c4)n3)c2)CC1 [Compound 552] | > 8.9 | > 8.9 | > 8.9 | > 8.9 | > 8.9 | > 8.9 | > 8.9 | > 8.9 | > 8.9 | > 8.9
14 | COc1cc(Nc2ncnc(N[C@H]3CCCc4ccccc43)n2)cc(OC)c1OC [Compound 619] | 5.89 to 8.59 | > 11 | > 11 | 8.59 to 11 | 8.59 to 11 | 5.89 to 8.59 | > 11 | 8.59 to 11 | > 11 | > 11
15 | COc1cc(Nc2ncnc(Nc3cc(C(F)(F)F)ccc3F)n2)cc(OC)c1OC [Compound 618] | 0.91 to 5.46 | > 10.2 | 7.97 to 10.2 | < 0.91 | 5.46 to 7.97 | 0.91 to 5.46 | 5.46 to 7.97 | 7.97 to 10.2 | < 0.91 | 0.91 to 5.46
16 | COc1cc(Nc2ncnc(Nc3cc(OC)c(OCCN4CCOCC4)c(OC)c3)n2)cc(OC)c1OC [Compound 562] | < 0.737 | > 8.29 | > 8.29 | < 0.737 | 4.42 to 6.45 | 4.42 to 6.45 | > 8.29 | > 8.29 | 4.42 to 6.45 | 4.42 to 6.45
17 | COc1cc(Nc2ncnc(N(C)c3ccc4c(cnn4Cc4ccccc4)c3)n2)cc(OC)c1OC [Compound 566] | < 0.804 | > 9.04 | > 9.04 | < 0.804 | < 0.804 | < 0.804 | 0.804 to 4.82 | > 9.04 | 7.03 to 9.04 | 0.804 to 4.82
18 | O=C(O)Cc1cccc(Nc2ncnc(-n3c(NCc4ccccn4)nc4ccccc43)n2)c1 [Compound 533] | > 9.95 | > 9.95 | > 9.95 | > 9.95 | > 9.95 | < 0.884 | > 9.95 | > 9.95 | > 9.95 | 0.884 to 5.3
19 | COc1cc(Nc2ncnc(-n3c(NCc4cccc([N+](=O)[O-])c4)nc4ccccc43)n2)cc(OC)c1OC [Compound 572] | 0.757 to 4.54 | > 8.51 | > 8.51 | > 8.51 | 6.62 to 8.51 | < 0.757 | 6.62 to 8.51 | > 8.51 | > 8.51 | < 0.757
